Measured values as given in publication PMC9919490, “Synthesis and Biological Evaluation of Novel Dispiro-Indolinones with Anticancer Activity” (Molecules, 2023).
Read-outs that look alike come from different tables or passages of the source. Blank lines part the entries; values can stand above or below the compound they belong to.

Assays:
[1] = test system: PC3 cells; assay: MTT cytotoxicity assay, PC3 (p53 neg); assay type: cell-based
Experimental: (§1) The synthesized compounds were tested for their ability to block the proliferation of the selected model cell lines: LNCaP (p53+), PC3 (p53-), HCT^wt (p53+), and HCT^−/− (p53-) cells. The assay was carried out using the standard MTT (3-(4,5-dimethylthiazol-2-yl)2,5-diphenyl tetrazolium bromide) assay based on the modified approach reported by Ferrari and colleagues. […] Differences in IC50 values against these cell lines were used to assess the selectivity of the compounds.
(§2) Model cell lines were purchased from the in stock collection of the N.N. Blokhin Russian Cancer Research Center (RAMS). Cells were accurately maintained in the recommended media, supplemented with 10% heat-inactivated FBS (Invitrogen) and 2 mmol/L L-glutamine (Invitrogen).
(§3) First, 4000 cells per well were plated out in 140 µL of DMEM (with 10% FBS) in 96-well plates and incubated in 5% CO2 for 24 h at 37 °C without treatment. […] The cells were treated for 48 h with […] (eight dilutions) concentrations of the substances (each in triplicate) or doxorubicin (0.3 nM–600 nM, eight dilutions) as a control substance. After the incubation, 15 µL of MTT solution in PBS (5 mg/mL) was added, and the cells were incubated for 2 h, followed by removal of the media and addition of 120 µL of DMSO. […] Cell survival rates were determined by the comparison of optical density with the corresponding untreated control cell culture. Dose-dependent curves and the corresponding IC50 values were calculated using “GraphPad Prism 6” software (GraphPad Software, Inc., San Diego, CA, USA).

[2] = test system: HCT^wt cells; assay: MTT cytotoxicity assay, HCT^wt (p53 pos); assay type: cell-based; conditions: 48 h
Experimental: as §1, §2, §3

[3] = test system: HCT^−/− cells; assay: MTT cytotoxicity assay, HCT^−/− (p53 neg); assay type: cell-based; conditions: 48 h
Experimental: as §1, §2, §3

[4] = test system: p53, PUMA, CASPASE-3 in HCTwt cells; assay: Western blot, p53 and p53-dependent apoptosis proteins; assay type: cell-based; conditions: HCTwt cell culture, increasing concentration; nutlin-3a 20 µM positive control
Experimental: To verify the mechanism of cytotoxic action of the synthesized dispiro-indolinones, Western blot testing of dispiro-indolinone 29 was performed using the p53-expressing HCTwt and LNCaP cell lines. Both the p53 protein and the proteins involved in the p53-dependent process of apoptosis (i.e., BAX, NOXA, and PUMA) were determined. For comparison, similar testing was carried out for a cell line not expressing p53 (HCT^(−/−)).

[5] = test system: MDM2; conditions: binding to MDM2; cited from earlier work
[6] = test system: LNCaP; conditions: cited from earlier work
[7] = test system: HCT116; conditions: cited from earlier work
[8] = test system: PC3 cells; set-up: method as in earlier work; conditions: dye assay with sulforhodamine B; cited from earlier work
[9] = test system: LNCaP cells; assay: MTT cytotoxicity assay, LNCaP (p53 pos); assay type: cell-based; conditions: 48 h
Experimental: as §1, §2, §3

[10] = set-up: method as in PMID 25384157; conditions: rats; cited from earlier work
[11] = test system: MDM2–p53 PPI; conditions: Figure 5a, template molecules; cited from earlier work
[12] = test system: SJSA1 human osteosarcoma cells; conditions: cited from earlier work
[13] = biological target: MDM2; conditions: no reference given; cited from earlier work
[14] = at 50 mg/kg, mice; cited from earlier work
[15] = test system: LNCaP cells expressing AR; set-up: method as in PMID 22524527, PMID 11495595, PMID 20218717; conditions: Figure 3; cited from earlier work
[16] = test system: xenograft models of human cancer; set-up: method as in PMID 26041888; conditions: two types of xenograft models, oral administration; cited from earlier work
[17] = test system: HepG2 cells; set-up: method as in PMID 22524527, PMID 11495595, PMID 20218717; conditions: Figure 3; cited from earlier work
[18] = test system: HCT116p53−/−; assay: Mechanism of cell death, flow cytometry 7AAD/annexin V, HCT116p53−/−; assay type: cell-based; conditions: 7AAD/annexin V staining
[19] = test system: HCT116wt; assay: Mechanism of cell death, flow cytometry 7AAD/annexin V, HCT116wt; assay type: cell-based; conditions: 7AAD/annexin V staining
[20] = test system: PC3; assay: Mechanism of cell death, flow cytometry 7AAD/annexin V, PC3; assay type: cell-based; conditions: 7AAD/annexin V staining
[21] = set-up: method as in PMID 22524527, PMID 11495595, PMID 20218717; conditions: Figure 3; cited from earlier work

SMILES: COc1ccc(C2=N[C@@H](c3ccc(Cl)cc3)[C@@H](c3ccc(Cl)cc3)N2C(=O)N2CCNC(=O)C2)c(OC(C)C)c1 [Nutlin-3a, reference compound]
IC50 ([1]; 48 h): 28.9 ± 3.7 µM
IC50 [2]: 4.5 ± 1.3 µM
IC50 [3]: > 100 µM
CC50 ([6]; MTT assay): 1.5 µM
CC50 ([7]; dye assay, sulforhodamine B): 4.63 ± 0.78 µM
CC50 [8]: 6.37 ± 1 µM

melting point: 211 to 212 °C
SMILES: CN1CC(c2ccccc2)C2(NC(=S)N(c3ccccc3)C2=O)C12C(=O)Nc1ccccc12 (centres unmarked) [Compound 4]
IC50 ([9]; Homo sapiens, LNCaP): > 100 µM
IC50 ([1]; Homo sapiens, PC-3, 48 h): > 100 µM
IC50 [2]: > 100 µM
IC50 [3]: > 100 µM

SMILES: CC[C@@H]([C@H](C)O)N1C(=O)[C@@](C)(CC(=O)O)C[C@H](c2cccc(Cl)c2)[C@H]1c1ccc(Cl)cc1 [AM-8553]
oral bioavailability [10]: 100%

SMILES: CC(C)(C)CC1NC(C(=O)NCCN)C(c2cccc(Cl)c2F)C12C(=O)Nc1cc(Cl)ccc12 (centres unmarked) [XX]
IC50 [11]: 0.0094 µM

SMILES: CCOc1cc(C(C)(C)C)ccc1C1=N[C@@](C)(c2ccc(Cl)cc2)[C@@](C)(c2ccc(Cl)cc2)N1C(=O)N1CCN(CCCS(C)(=O)=O)CC1 [RG-7112]
CC50 ([6]; MTT tests): 0.18 µM
CC50 ([7]; MTT tests): 0.54 ± 0.12 µM

melting point: 199 to 200 °C
SMILES: C#CCN1C(=O)[C@]2(c3ccccc31)N(C)C[C@H](c1cccc(Cl)c1)[C@]21NC(=S)N(c2ccc(OC)c(Cl)c2)C1=O [Compound 69]
IC50 ([9]; Homo sapiens, LNCaP): > 100 µM
IC50 ([1]; Homo sapiens, PC-3, 48 h): > 100 µM
IC50 [2]: > 100 µM
IC50 [3]: > 100 µM

SMILES: COc1cc(NC(=O)C[C@@]2(C)C[C@H](c3cccc(Cl)c3)[C@@H](c3ccc(Cl)c(F)c3)N([C@H](CS(=O)(=O)C(C)(C)C)C3CC3)C2=O)ccc1C(=O)O [AM-7209]
IC50 [12]: 0.0016 µM

SMILES: CC(C)(C)C[C@H]1N[C@@H](C(=O)NCC[C@H](O)CO)[C@H](c2cccc(Cl)c2)[C@@]12C(=O)Nc1cc(Cl)c(F)cc12.Cl [MI-219]
Ki [13]: 0.005 µM
oral bioavailability [14]: 55–65%

SMILES: Cc1ccc(N2C(=S)N(c3ccc(C#N)c(C(F)(F)F)c3)C(=O)C23CCC3)cc1 [XVII]
IC50 [15]: 0.124 µM

SMILES: CC(C)(C)C[C@@H]1N[C@@H](C(=O)N[C@H]2C[C@@](C)(O)C2)[C@H](c2cccc(Cl)c2F)[C@]12C(=O)Nc1cc(Cl)ccc12 [MI-888]
IC50 [12]: ~0.09 µM
tumor regression [16]: rapid, complete, and durable tumor regression

SMILES: N#Cc1cc(N2C(=O)C3(CCC3)N(c3ccc(C(=O)NCCCN4CCCC4)c(F)c3)C2=S)ccc1C(F)(F)F [XIX]
IC50 [17]: < 1 µM

SMILES: CN1C[C@H](c2ccccc2Cl)[C@]2(NC(=S)N(c3ccc(Cl)cc3)C2=O)[C@]12C(=O)Nc1ccc(Cl)cc12 (racemic) [Compound 36]
IC50 [9]: > 100 µM
IC50 ([1]; 48 h): > 100 µM
IC50 [2]: > 100 µM
IC50 [3]: > 100 µM

SMILES: CN1C[C@H](c2ccc(Cl)cc2)[C@]2(NC(=S)N(c3ccccc3)C2=O)[C@]12C(=O)Nc1ccc(Br)cc12 (racemic) [Compound 13]
IC50 [9]: 1.2 ± 0.6 µM
IC50 ([1]; 48 h): 11.3 ± 1.2 µM
IC50 [2]: 3.5 ± 1.2 µM
IC50 [3]: > 100 µM
mechanism of cell death [18]: necrosis/late apoptosis
mechanism of cell death [19]: early apoptosis
mechanism of cell death [20]: early apoptosis

SMILES: COc1ccc(C2CN(C)C3(C(=O)Nc4ccc(Cl)cc43)C23NC(=S)N(c2ccc(Cl)cc2)C3=O)cc1OC (centres unmarked) [Compound 39, 1-(4-chlorophenyl)-4’-(3,4-dimethoxyphenyl)-1’-methyl-5’’’-chloro-2-thiooxodispiro[imidazolidine-4,3’-pyrrolidine-2’,3”-indoline]-2”,5-dione]
IC50 [9]: > 100 µM
IC50 ([1]; 48 h): > 100 µM
IC50 [2]: > 100 µM
IC50 [3]: > 100 µM

SMILES: O=C1NC(=S)N[C@@]12O[C@H](CO)[C@@H](O)[C@H](O)[C@H]2O [XVIII]
Ki [21]: 0.007 ± 0.0011 µM

SMILES: CN1C[C@H](c2cccc(C=O)c2)[C@]2(NC(=S)N(c3ccccc3)C2=O)[C@]12C(=O)Nc1ccc(Cl)cc12 (racemic) [Compound 24]
IC50 [9]: > 100 µM
IC50 ([1]; 48 h): > 100 µM
IC50 [2]: > 100 µM
IC50 [3]: > 100 µM

SMILES: CCc1ccc([C@H]2CN(C)[C@@]3(C(=O)Nc4ccccc43)[C@@]23NC(=S)N(c2ccc(F)c(Cl)c2)C3=O)cc1 (racemic) [Compound 46]
IC50 [9]: > 100 µM
IC50 ([1]; 48 h): > 100 µM
IC50 [2]: 6.3 ± 2.5 µM
IC50 [3]: 6.5 ± 3.6 µM
